One experiment concerns the target T1, Caspase-1 (Homo sapiens) (UniProt P29466).
T1 sequence (whole entry): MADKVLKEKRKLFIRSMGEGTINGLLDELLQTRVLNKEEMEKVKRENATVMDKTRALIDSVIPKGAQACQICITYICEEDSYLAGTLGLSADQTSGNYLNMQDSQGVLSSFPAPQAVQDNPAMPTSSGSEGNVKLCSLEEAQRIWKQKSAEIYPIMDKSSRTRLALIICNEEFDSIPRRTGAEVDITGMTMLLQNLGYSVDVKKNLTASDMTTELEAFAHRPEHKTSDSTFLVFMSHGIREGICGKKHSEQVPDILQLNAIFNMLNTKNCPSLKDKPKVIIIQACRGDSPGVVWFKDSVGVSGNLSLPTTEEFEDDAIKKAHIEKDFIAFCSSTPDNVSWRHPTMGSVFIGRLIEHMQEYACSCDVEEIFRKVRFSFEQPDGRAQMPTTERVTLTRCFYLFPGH
Nature of the experiment: Inhibition of caspase1 in differentiated human THP-1 cells at 100 ug/ml after 24 hrs by fluorometric assay. The experiment is classed as cell-based.
The inhibition is the drop in the measured response relative to a control, in per cent. Higher therefore signals strong suppression. Compound `C=C1[C@@]2(C)C[C@H]3[C@]4(C)CCC(=O)OC(C)(C)[C@@H]4CC[C@]3(C)[C@]1(C(=O)OC)C(=O)[C@@](C)(O)C2=O` registered an inhibition of 77%.

Turning to `C=C1[C@@]2(C)C[C@H]3[C@]4(C)CCC(=O)C(C)(C)[C@H]4CC[C@]3(C)[C@]1(C(=O)OC)C(=O)[C@@](C)(O)C2=O`, the inhibition was determined as 97%. Still for that read-out and setting: the figure for `C=C1[C@@]2(C)C[C@H]3[C@]4(C)CC[C@@H](O)C(C)(C)[C@H]4CC[C@]3(C)[C@]1(C(=O)OC)C(=O)[C@@](C)(O)C2=O` is 68%; for `C=C1[C@@]2(C)C[C@H]3C(C)=C4CC(=O)OC(C)(C)C4=CC[C@]3(C)[C@]1(C(=O)OC)C(=O)[C@@](C)(O)C2=O` it is 89%; for `C=C(C)C1=CC[C@@]2(C)[C@@H](C[C@]3(C)C(=C)[C@@]2(C(=O)OC)C(=O)[C@@](C)(O)C3=O)[C@]1(C)CCC(=O)O` it is 0%.

`C=C1[C@@]2(C)C[C@@H]3[C@](C)(CC=C4C(C)(C)OC(=O)CC[C@]43C)[C@]1(C(=O)OC)C(=O)[C@@](C)(O)C2=O` registered an inhibition of 100%.

The next experiment has as its target T1, Caspase-1 (Homo sapiens). Kind of experiment: Inhibition of caspase1 in differentiated human THP-1 cells at 0.0005 ug/ml after 24 hrs by fluorometric assay. The class given is cell-based.
In the case of `CC(=O)N[C@@H](Cc1ccc(O)cc1)C(=O)N[C@H](C(=O)N[C@@H](C)C(=O)N[C@H](C=O)CC(=O)O)C(C)C`, the inhibition turned out to be 100%.

The values are drawn from ChEMBL document CHEMBL1909526, “Berkeleyones and related meroterpenes from a deep water acid mine waste fungus that inhibit the production of interleukin 1-β from induced inflammasomes” (J Nat Prod, 2011).
